One data set addresses T1, AR in LNCaP cells (Homo sapiens, UniProt P10275, T878A).
T1 construct: Assay on Degradation Activity for AR in LNCaP Cells; endogenous in cells; host or cells: LNCaP cells
T1 sequence (P10275 1-920 T878A): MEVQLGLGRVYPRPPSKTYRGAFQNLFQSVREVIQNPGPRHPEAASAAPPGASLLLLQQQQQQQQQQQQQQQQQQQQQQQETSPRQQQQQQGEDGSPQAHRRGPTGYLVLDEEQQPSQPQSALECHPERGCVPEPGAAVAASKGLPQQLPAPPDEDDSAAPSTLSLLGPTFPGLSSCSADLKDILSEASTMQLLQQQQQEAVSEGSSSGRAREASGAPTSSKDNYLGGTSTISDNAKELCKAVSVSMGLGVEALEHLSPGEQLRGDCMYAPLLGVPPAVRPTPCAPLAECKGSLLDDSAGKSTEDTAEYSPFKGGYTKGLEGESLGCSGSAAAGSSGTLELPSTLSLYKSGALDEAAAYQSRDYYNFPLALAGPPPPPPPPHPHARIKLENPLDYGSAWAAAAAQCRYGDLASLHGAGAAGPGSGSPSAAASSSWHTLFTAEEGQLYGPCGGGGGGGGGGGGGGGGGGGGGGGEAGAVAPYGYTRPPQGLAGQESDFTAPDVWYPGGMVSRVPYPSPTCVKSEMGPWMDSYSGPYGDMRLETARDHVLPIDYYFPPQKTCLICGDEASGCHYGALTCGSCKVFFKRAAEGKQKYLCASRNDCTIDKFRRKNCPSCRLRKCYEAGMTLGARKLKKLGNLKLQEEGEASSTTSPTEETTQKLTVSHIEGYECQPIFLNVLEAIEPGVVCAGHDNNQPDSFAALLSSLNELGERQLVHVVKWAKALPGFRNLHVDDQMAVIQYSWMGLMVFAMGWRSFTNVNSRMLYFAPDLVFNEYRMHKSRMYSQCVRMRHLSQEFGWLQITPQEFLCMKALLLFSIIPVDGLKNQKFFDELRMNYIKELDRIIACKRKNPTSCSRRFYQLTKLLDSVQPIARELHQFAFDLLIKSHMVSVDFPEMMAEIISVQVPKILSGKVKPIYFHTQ
Briefly: Assay on degradation activity for AR in LNCaP cells (HTRF human androgen receptor detection kit). Format: cell-based. To be noted: 24 h incubation. Summed up: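 LNCaP cells seeded in 2% CSS-FBS phenol red-free 1640 medium overnight, then treated in duplicate with 500 nM–0.488 nM compound for 24 h. AR in lysates quantified by HTRF (Eu cryptate/d2 antibodies, 2 h, 25 °C, 665/620 nm); DC50 and Dmax from four-parameter fits.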
(Time-resolved FRET reads energy transfer from a long-lived donor to a nearby acceptor.)

For the next data set, the system named is LNCaP cells. The experiment in a line: Assay on inhibitory activity for LNCaP cell proliferation (CCK-8). As to conditions: Homo sapiens, 168 h incubation. Format: cell-based. Summed up: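 Cells seeded at 1×10^5 cells/mL in phenol red-free 1640 with 2% CSS-FBS, treated at final 10000 nM-0.61 nM in duplicate. After 168 h incubation, viability read with CCK-8.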

Data set [1] is described as follows: In vitro stability in liver microsome. The class given is in vitro ADME. To be noted: human liver microsome 0.5 mg/mL, NADPH, 37° C. As to the method: Liver microsome incubation samples (species: human, monkey, rat, and mouse) were prepared by mixing a PBS buffer (pH=7.4), a liver microsome solution (0.5 mg/mL), a test compound, and an NADPH+MgCl2 solution and incubated at 37° C. and 300 rpm for 1 h. Zero-hour samples were prepared by mixing a PBS buffer (pH=7.4), a liver microsome solution (0.5 mg/mL), and a test compound. An acetonitrile solution containing an internal standard was added to the samples, and supernatants were prepared by protein precipitation, diluted, and then assayed by LC/MS/MS.
On the technique in general: Liver microsomes are vesicles of endoplasmic reticulum, rich in cytochrome P450 enzymes.

Usually DC50 stands for the midpoint of the concentration-degradation curve. The low end stands for degradation at low concentration, the high end for degradation only at high concentration. By Dmax is commonly meant the greatest extent of degradation seen. Lower therefore signals shallow degradation. The term IC50 denotes the concentration at which inhibition is half-maximal.

For `N#Cc1ccc(O[C@H]2CC[C@H](NC(=O)c3ccc(C4CCN(C5CN(c6cc7onc(C8CCC(=O)NC8=O)c7c7ccccc67)C5)CC4)nn3)CC2)cc1Cl` (stereo partly shown) [Compound 48], the DC50 on AR in LNCaP cells (HTRF) was ≤ 20 nM. Moreover, on AR in LNCaP cells (maximum degradation rate), the Dmax was > 80%. In addition, the IC50 in the data set on LNCaP cells is < 1000 nM. The “Human liver microsome Residuals at 60 min (%)” value in data set [1] is recorded as >85%.

Values taken from patent US20260035384A1, “COMPOUND CONTAINING CYCLOHEXYL” (CHIA TAI TIANQING PHARMACEUTICAL GROUP CO., LTD., priority 2022, published 2026).
